Measurements: patent US8766005B2, “Process for producing fingolimod salts” (Ratiopharm GmbH, priority 2009, dated 2014)

Assay: dissolution profile before and after storage
Format: physicochemical
Conditions: during shelf life

Structure (SMILES): CCCCCCCCc1ccc(CCC(N)(CO)CO)cc1.Cl [polymorphic form B, fingolimod hydrochloride]
- dissolution profile before and after storage: constant
